The results in this text go back to ChEMBL document CHEMBL3886889, “Substituted [1,2,4]triazolo[4,3-a]pyrazines as selective NK-3 receptor antagonists” (2016).

For assay [1], the target named is T1, Neuromedin-K receptor (Homo sapiens, UniProt P29371).
T1 sequence (P29371 whole entry): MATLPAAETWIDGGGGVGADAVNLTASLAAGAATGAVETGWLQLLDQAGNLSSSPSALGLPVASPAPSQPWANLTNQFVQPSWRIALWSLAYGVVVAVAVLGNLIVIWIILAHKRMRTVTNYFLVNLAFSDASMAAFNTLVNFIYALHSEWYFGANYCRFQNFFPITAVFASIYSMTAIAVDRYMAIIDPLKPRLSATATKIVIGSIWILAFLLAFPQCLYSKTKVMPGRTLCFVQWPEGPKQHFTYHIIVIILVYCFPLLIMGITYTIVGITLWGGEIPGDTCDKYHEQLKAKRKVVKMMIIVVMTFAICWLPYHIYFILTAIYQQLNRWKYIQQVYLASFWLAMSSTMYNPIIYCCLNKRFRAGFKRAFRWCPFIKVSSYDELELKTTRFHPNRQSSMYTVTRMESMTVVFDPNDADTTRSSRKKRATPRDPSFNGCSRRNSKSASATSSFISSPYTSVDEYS
Briefly: Functional Assay: Chinese Hamster Ovary recombinant cells expressing the human NK-3 receptor and a construct that encodes the photoprotein apoaequorin were used for this assay. The antagonist activity of compounds of the invention is measured following pre-incubation (3 minutes) of the compound (at various concentrations) with the cells, followed by addition of the reference agonist (NKA) at a final concentration equivalent to the EC80 (3 nM) and recording of emitted light (FDSS 6000 Hamamatsu) over the subsequent 90-second period. The intensity of the emitted light is integrated using the reader software. Compound antagonist activity is measured based on the concentration-dependent inhibition of the luminescence response to the addition of Neurokinin A.

In assay [2] the target is T1, Neuromedin-K receptor. The assay is described as follows: Competitive Binding Assay: The affinity of compounds of the invention for the human NK-3 receptor was determined by measuring the ability of compounds of the invention to competitively and reversibly displace a well-characterized NK-3 radioligand in a concentration-dependent manner.3H-SB222200 Binding Competition Assay with Human NK-3 ReceptorThe ability of compounds of the invention to inhibit the binding of the NK-3 receptor selective antagonist 3H-SB222200 was assessed by an in vitro radioligand binding assay. Membranes were prepared from Chinese hamster ovary recombinant cells stably expressing the human NK-3 receptor. The membranes were incubated with 5 nM 3H-SB222200 (ARC) in a HEPES 25 mM/NaCl 0.1M/CaCl2 1 mM/MgCl2 5 mM/BSA 0.5%/Saponin 10 μg/ml buffer at pH 7.4 and various concentrations of compounds of the invention. The amount of 3H-SB222200 bound to the receptor was determined after filtration by the quantification of membrane associated radioactivity using the TopCount-NXT reader (Packard).

Take `CCC1c2nnc(-c3nc(C)ns3)n2CCN1C(=O)c1ccc(F)cc1` (racemic): on Neuromedin-K receptor [1], the half-inhibitory concentration (IC50) turned out to be 220 nM. Besides, at Neuromedin-K receptor [2], the Ki is 150 nM.
Turning to `Cc1nsc(-c2nnc3n2CCN(C(=O)c2ccc(F)cc2)C3CCO)n1` (racemic), the half-maximal inhibitory concentration (IC50) at Neuromedin-K receptor [1] stood at 170 nM. Also, the inhibition constant Ki at Neuromedin-K receptor [2] came to 59 nM.
